Test results taken from PubChem BioAssay AID1845210 (Molecular Pharmacology Branch, DTP, NCI, 2023).
Where “and” joins values, the source holds several entries; their conditions need not be identical. Equal values may be shown once.

Tested on: NCI-H226 complex tumor spheroids, viability
Experiment: Anticancer human tumor NCI-H226 cell line growth inhibition;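 note: spheroids exposed to compound for 7 days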;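 for viability, T/C: 100% = DMSO vehicle control viability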
Conditions: for viability, T/C: stronger effect = lower value
Text: Multicellular complex tumor spheroid response to DNA repair inhibitors in combination with DNA-damaging drugs
This study explores the anticancer activities of DNA-damaging drugs and inhibitors of DNA damage repair, both as single agents and in combinations. Complex tumor spheroids comprised of malignant cells, endothelial cells and mesenchymal stem cells served as an in vitro model for human solid tumors. This model system incorporates physiologically relevant features and patient-derived or established malignant cell lines with clinically relevant genetic alterations from many tumor types. Twenty-six patient-derived or established malignant cell lines were evaluated representing sarcoma, melanoma, small cell lung cancer (SCLC), non-small cell lung cancer (NSCLC), as well as bladder, ovarian and pancreatic cancers. The concentration ranges selected for each drug and investigational agent were based upon clinically achievable concentrations if the clinical Cmax of the agent was known.
Compounds. The drugs and compounds olaparib (NSC753686), talazoparib (NSC767125), berzosertib (NSC777718), elimusertib (NSC800525), nedisertib (NSC802822), VX-984 (NSC792969), AZD-1390 (NSC803789), temozolomide (NSC362856), topotecan (NSC609699), trabectedin (NSC813783), staurosporine (NSC755774), and gemcitabine (NSC613327) were obtained from the National Cancer Institute (NCI) Developmental Therapeutics Program Chemical Repository. The FDA-approved anticancer drug set is available from the Developmental Therapeutics Program at https://dtp.cancer.gov/organization/dscb/obtaining/available_plates.htm. […] The stock solutions were prepared in dimethyl sulfoxide (DMSO, Sigma-Aldrich, St. Louis, MO, cat. D2650) at 400-fold the tested concentration and stored at -70 degrees C. Prior to their use, the stock solutions were diluted in fresh medium and the final DMSO concentration in the assay was 0.25% (v/v). All drugs and investigational agents were tested over a range starting from a high concentration at or near the clinical Cmax and decreasing in half-log increments. If the clinical Cmax for an agent had not been determined, the highest concentration tested was 10 microM.
Cell Lines. The patient-derived cancer cell (PDC) lines: 156681-154-R-J1-PDC, 283228-195-R-J1-PDC, 287954-098-R-J1-PDC, 292921-168-R-J2-PDC, 349418-098-R-PDC, 425362-245-T-J1-PDC, 556581-035-R-J1-PDC, and BL0293-F563-PDC were received from the NCI Patient-Derived Models Repository (PDMR, https://pdmr.cancer.gov). The established cell lines HS-SY-2 (RRID:CVCL_8719), MPNST, and SYO-1 (RRID:CVCL_7146) were obtained from the Sloan Kettering Institute. The alveolar soft parts sarcoma cell line ASPS-1 (RRID:CVCL_S738) was established at the NCI and grown from internal seed stocks. The following established cell lines were purchased from the American Type Culture Collection (ATCC, Manassas, VA): G-401 (ATCC, cat. CRL-1441, RRID:CVCL_0270), SW982 (ATCC, cat. HTB-93, RRID:CVCL_1734), VA-ES-BJ (ATCC, cat. CRL-2138, RRID:CVCL_1785), NCI-H719 (ATCC, cat. CRL-5837, RRID:CVCL_1582), NCI-H196 (ATCC, cat. CRL-5823, RRID:CVCL_1509), NCI-H841 (ATCC, cat. CRL-5845, RRID:CVCL_1595), NCI-H1618 (ATCC, cat. CRL-5879, RRID:CVCL_1480), NCI-H1876 (ATCC, cat. CRL-5902, RRID:CVCL_1503), DMS 114 (ATCC, cat. CRL-2066; RRID:CVCL_1174), NCI-H211 (ATCC, cat. CRL-5824; RRID:CVCL_1529), and SW 1271 (ATCC, cat. CRL-2177, RRID:CVCL_1716). The small cell lung cancer cell line COR-L88 was purchased from Sigma-Aldrich (cat. 92031917-1VL, RRID:CVCL_1141). The non-small cell lung cancer cell lines NCI-H226 (RRID:CVCL_1544) and NCI-H322M (RRID:CVCL_1557) were established at the NCI and grown from internal seed stocks. Pooled donor human umbilical vein endothelial cells (HUVEC, Lonza, cat. CC-2519) and human mesenchymal stem cells (hMSC, Lonza, cat. PT-2501) were purchased from Lonza (Walkersville, MD).
Cell Culture. All cells were maintained in an incubator at 37 degrees C and 5% CO2 with 95% humidity. […]

[1] = curve of first compound, second compound 0.003 µM
[2] = second compound 0.003 µM, first compound 0.0316 µM
[3] = second compound 0.003 µM, first compound 0.1 µM
[4] = second compound 0.003 µM, first compound 0.316 µM
[5] = second compound 0.003 µM, first compound 1 µM
[6] = second compound 0.003 µM, first compound 3.16 µM
[7] = second compound 0.003 µM, first compound 10 µM

[2H]c1nc(C)nc([2H])c1-c1cc(NC[C@@H](C)c2cccc3c(C(=O)NC)ccnc23)ncn1 + COc1cc2c(cc1O)CCNC21CSC2c3c(OC(C)=O)c(C)c4c(c3C(COC1=O)N1C(O)C3Cc5cc(C)c(OC)c(O)c5C(C21)N3C)OCO4
IC50 (curve of first compound, second compound 30 pM): > 10 µM
IC50 (curve of first compound, second compound 94.9 pM): > 10 µM
IC50 (curve of first compound, second compound 0.0003 µM): > 10 µM
IC50 (curve of first compound, second compound 0.000949 µM): > 10 µM
IC50 [1]: < 0.0316 µM
viability, T/C (second compound 30 pM, first compound 0.0316 µM): 99.6%
viability, T/C (second compound 30 pM, first compound 0.1 µM): 101%
viability, T/C (second compound 30 pM, first compound 0.316 µM): 93%
viability, T/C (second compound 30 pM, first compound 1 µM): 106%
viability, T/C (second compound 30 pM, first compound 3.16 µM): 111%
viability, T/C (second compound 30 pM, first compound 10 µM): 101%
viability, T/C (second compound 94.9 pM, first compound 0.0316 µM): 99.1%
viability, T/C (second compound 94.9 pM, first compound 0.1 µM): 101%
viability, T/C (second compound 94.9 pM, first compound 0.316 µM): 100%
viability, T/C (second compound 94.9 pM, first compound 1 µM): 101%
viability, T/C (second compound 94.9 pM, first compound 3.16 µM): 103%
viability, T/C (second compound 94.9 pM, first compound 10 µM): 103%
viability, T/C (second compound 0.0003 µM, first compound 0.0316 µM): 105%
viability, T/C (second compound 0.0003 µM, first compound 0.1 µM): 110%
viability, T/C (second compound 0.0003 µM, first compound 0.316 µM): 115%
viability, T/C (second compound 0.0003 µM, first compound 1 µM): 118%
viability, T/C (second compound 0.0003 µM, first compound 3.16 µM): 98.7%
viability, T/C (second compound 0.0003 µM, first compound 10 µM): 118%
viability, T/C (second compound 0.000949 µM, first compound 0.0316 µM): 105%
viability, T/C (second compound 0.000949 µM, first compound 0.1 µM): 114%
viability, T/C (second compound 0.000949 µM, first compound 0.316 µM): 102%
viability, T/C (second compound 0.000949 µM, first compound 1 µM): 112%
viability, T/C (second compound 0.000949 µM, first compound 3.16 µM): 101%
viability, T/C (second compound 0.000949 µM, first compound 10 µM): 105%
viability, T/C [2]: 3.26%
viability, T/C [3]: 3.28%
viability, T/C [4]: 1.57%
viability, T/C [5]: 2.56%
viability, T/C [6]: 1.3%
viability, T/C [7]: 0.8%

CNCc1ccc(-c2cc(-c3nc(-c4ccc(S(=O)(=O)C(C)C)cc4)cnc3N)on2)cc1
viability, T/C (compound 0.00949 µM): 109% and 97.8% and 83.3%
viability, T/C (compound 0.03 µM): 126% and 123% and 90.1%
viability, T/C (compound 0.0949 µM): 132% and 112% and 106%
viability, T/C (compound 0.3 µM): 124% and 127% and 118%
viability, T/C (compound 0.949 µM): 20% and 109% (2×)
viability, T/C (compound 3 µM): 0.4% and 2.72% and 0.64%
IC50 (curve of compound): 0.678 µM and 1.8 µM and 1.71 µM

COc1cc(C)[nH]c(=O)c1CN1CCc2c(Cl)cc(C(OC)C3COC3)c(Cl)c2C1=O (centres undefined)
viability, T/C (compound 0.0316 µM): 90.2% and 107% and 114%
viability, T/C (compound 0.1 µM): 113% and 115% and 102%
viability, T/C (compound 0.316 µM): 109% and 125% and 108%
viability, T/C (compound 1 µM): 110% and 115% and 102%
viability, T/C (compound 3.16 µM): 114% and 134% and 116%
viability, T/C (compound 10 µM): 116% and 120% and 108%
IC50 (curve of compound): > 10 µM

[2H]c1nc(C)nc([2H])c1-c1cc(NC[C@@H](C)c2cccc3c(C(=O)NC)ccnc23)ncn1 + CC[C@@]1(O)C(=O)OCc2c1cc1n(c2=O)Cc2cc3c(CN(C)C)c(O)ccc3nc2-1
IC50 [1]: > 10 µM
IC50 (curve of first compound, second compound 0.00949 µM): > 10 µM
IC50 (curve of first compound, second compound 0.03 µM): > 10 µM
IC50 (curve of first compound, second compound 0.0949 µM): > 10 µM
IC50 (curve of first compound, second compound 0.3 µM): > 10 µM
viability, T/C [2]: 89.6%
viability, T/C [3]: 93.2%
viability, T/C [4]: 92.6%
viability, T/C [5]: 82%
viability, T/C [6]: 79.5%
viability, T/C [7]: 88.1%
viability, T/C (second compound 0.00949 µM, first compound 0.0316 µM): 86.8%
viability, T/C (second compound 0.00949 µM, first compound 0.1 µM): 88.3%
viability, T/C (second compound 0.00949 µM, first compound 0.316 µM): 93%
viability, T/C (second compound 0.00949 µM, first compound 1 µM): 86.7%
viability, T/C (second compound 0.00949 µM, first compound 3.16 µM): 84.3%
viability, T/C (second compound 0.00949 µM, first compound 10 µM): 88.5%
viability, T/C (second compound 0.03 µM, first compound 0.0316 µM): 79%
viability, T/C (second compound 0.03 µM, first compound 0.1 µM): 82%
viability, T/C (second compound 0.03 µM, first compound 0.316 µM): 84.3%
viability, T/C (second compound 0.03 µM, first compound 1 µM): 79%
viability, T/C (second compound 0.03 µM, first compound 3.16 µM): 81.5%
viability, T/C (second compound 0.03 µM, first compound 10 µM): 73%
viability, T/C (second compound 0.0949 µM, first compound 0.0316 µM): 88.8%
viability, T/C (second compound 0.0949 µM, first compound 0.1 µM): 89%
viability, T/C (second compound 0.0949 µM, first compound 0.316 µM): 85.1%
viability, T/C (second compound 0.0949 µM, first compound 1 µM): 83%
viability, T/C (second compound 0.0949 µM, first compound 3.16 µM): 80.5%
viability, T/C (second compound 0.0949 µM, first compound 10 µM): 86.5%
viability, T/C (second compound 0.3 µM, first compound 0.0316 µM): 59.8%
viability, T/C (second compound 0.3 µM, first compound 0.1 µM): 70.4%
viability, T/C (second compound 0.3 µM, first compound 0.316 µM): 65.5%
viability, T/C (second compound 0.3 µM, first compound 1 µM): 71.9%
viability, T/C (second compound 0.3 µM, first compound 3.16 µM): 59.5%
viability, T/C (second compound 0.3 µM, first compound 10 µM): 60.7%
